Source: US20230172923A1, “METHODS OF TREATING CYTOKINE-RELATED ADVERSE EVENTS” (BRISTOL-MYERS SQUIBB COMPANY, priority 2020, published 2023)
“Also recorded” adds a separate entry of the source.

What was measured:
Assay type in all cases: cell-based, human
IL-6 [1] = experiment: LPS-induced IL-6 secretion from PBMCs, overnight pre-treatment (MSD); conditions: overnight 1000 nM lenalidomide, 100 nM pomalidomide, 10 nM iberdomide or 1 nM Compound 1; LPS 24 hours
Procedure: Fresh PBMCs isolated from healthy volunteers were seeded at a concentration of 1×10^6 cells/ml and treated with the indicated concentration of IMiD drugs/CELMoD agents or DMSO overnight before stimulation with the indicated concentration of LPS. After 24 hours, the cell culture media was collected and IL-6, TNF-alpha and IL1-beta levels in the supernatant were assessed using an MSD assay. ULOQ = Upper limit of quantification.
Fresh peripheral blood mononuclear cells (PBMCs) were isolated from the blood (buffy coat) of healthy human volunteers by Ficoll based cell separation. The isolated PBMCs were seeded at a concentration of 1×10^6 cells/ml and treated with 1000 nM lenalidomide, 100 nM pomalidomide, 10 nM iberdomide, 1 nM Compound 1 (CC-92480) or control DMSO, overnight (~17 hours). The next morning, the PBMCs were stimulated with various concentrations of LPS (Lipopolysaccharides from Escherichia coli O111:B4).
After 24 hours, the cell culture media was collected from the control and stimulated cells, spun down at 300 g for 5 minutes to remove cells and the supernatant was subjected to cytokine analysis to quantify secreted levels of IL-6, TNF-alpha (TNF-α) and IL1-beta (IL-1β) using an MSD assay (see e.g. FIGS. 8A-C).

IL-6 [2] = experiment: CC-93269-induced IL-6 secretion, co-culture of PBMCs and K562-BCMA cells (MSD); conditions: 24 hours; for secretion of IL-6 associated with CC-93269 activity, PBMCs + K562-BCMA: pre-treatment 1000 nM lenalidomide, 100 nM pomalidomide, 10 nM iberdomide or 1 nM Compound 1, T-cells to target cells 5:1
Procedure: (§1) Fresh PBMCs were isolated from healthy volunteers, the percentage of CD3+ T-cells (total) was quantified by flow cytometry, and the PBMCs were treated with 1 nM Compound 1 (CC-92480) or control DMSO overnight. The next morning, target cells (K562-BCMA, which overexpress surface BCMA at a very high level) or control cells (K562-MCB, no BCMA expression) were added to the wells at a ratio of 5:1, T-cells to target cells, followed by addition of CC-93269 at the indicated concentrations. At 6-, 24- and 48-hours post-incubation, the cell culture media was collected and levels of IL-6 in the supernatant were assessed using an MSD assay.
The circles indicate independent donors and the bars indicate median values; not all donors are shown because a data cut-off for the bottom ~10% of IL-6 concentrations, below 200 pg/ml, was used to eliminate small changes that could skew the result and to increase confidence in results.
as §1, with “the indicated concentrations of IMiD/CELMoD agents” for “1 nM Compound 1 (CC-92480)”, “level)” for “level) or control cells (K562-MCB, no BCMA expression)”, “24 hours” for “6-, 24- and 48-hours”
Fresh PBMCs were isolated from the blood (buffy coat) of healthy human volunteers by Ficoll based cell separation. The percentage of CD3+ T-cells (total) in the PBMCs was quantified by flow cytometry. The isolated PBMCs were seeded in 12-well plates at a concentration of 1.5×10^6 cells/ml and treated with 1 nM Compound 1 (CC-92480), 1000 nM lenalidomide, 100 nM pomalidomide, 10 nM iberdomide, or control DMSO overnight (~17 hours).
After overnight incubation, target K562-BCMA cells (overexpress surface BCMA at a very high level) or control K562-MCB cells (no BCMA expression) were added to the wells at a ratio of 5:1, T-cells to target cells. K562-BCMA and K562-MCB are an isogenic pair that are derived from a chronic myelogenous leukemia (CML,) cell line. CC-93269 was added to the co-culture at various concentrations and incubated. CC-93269 is an anti-BCMA anti-CD3 bispecific T cell-engaging antibody and is also referred to herein as 42-TCBcv.
At 6, 24 and 48 hours post-incubation, the cell culture media was collected from all samples, spun down at 300 g for 5 minutes to remove cells and the supernatant was subjected to cytokine analysis to quantify secreted levels of IL-6 using an MSD assay.

MIP-1β = experiment: LPS-stimulated PBMC cytokine production, multiplex cytokine analysis: MIP-1β; conditions: Homo sapiens; PBMC 2×10^6 cells/ml, compound 1 hour, then 1 ng/ml LPS 18 hours
Procedure: (§2) Peripheral blood mononuclear cells (PBMCs) were isolated from the blood of healthy human donors by Ficoll cell separation. […] Supernatant samples were subjected to multiplex cytokine analysis (Luminex IS100 instrument) to quantify secreted levels of IL-6, IL-8, IL1-beta (IL-1β), GM-CSF, MDC, MIP-1alpha (MIP-1α), MIP-1beta (MIP-1β) and TNF-alpha (TNF-α) (see e.g. FIGS. 7A-C). IC50 (half maximal inhibitory concentration) values were calculated to measure the potency of each IMiD compound in inhibiting LPS-stimulated secretion of each cytokine (see Table 25).

IL-8 = experiment: LPS-stimulated PBMC cytokine production, multiplex cytokine analysis: IL-8; conditions: Homo sapiens; PBMC 2×10^6 cells/ml, compound 1 hour, then 1 ng/ml LPS 18 hours
Procedure: (§3) Peripheral blood mononuclear cells (PBMCs) were isolated from the blood of healthy human donors by Ficoll cell separation. The PBMCs were seeded at a concentration of 2×10^6 cells/ml and treated for 1 hour at 37° C. with various concentrations of IMiD compounds or control DMSO (0.25%), before stimulation with 1 ng/ml LPS for 18 hours at 37° C.
(§4) Supernatant samples were subjected to multiplex cytokine analysis (Luminex IS100 instrument) to quantify secreted levels of IL-6, IL-8, IL1-beta (IL-1β), GM-CSF, MDC, MIP-1alpha (MIP-1α), MIP-1beta (MIP-1β) and TNF-alpha (TNF-α) (see e.g. FIGS. 7A-C).
(§5) IC50 (half maximal inhibitory concentration) values were calculated to measure the potency of each IMiD compound in inhibiting LPS-stimulated secretion of each cytokine (see Table 25).

[3] = system: IL-6, IL-8, IL-1β, GM-CSF, MDC, MIP-1α, MIP-1β and TNF-α; experiment: LPS-induced secretion of proinflammatory cytokines from PBMCs (whole multiplex panel, result in words); conditions: pre-treatment 1 hour, 1 ng/ml LPS 18 hours
Procedure: Peripheral blood mononuclear cells (PBMCs) from healthy volunteers were seeded at a concentration of 2×10^6 cells/ml and treated with the indicated concentrations of IMiD compounds or control DMSO (0.25%) for 1 hour, before stimulation with 1 ng/ml LPS. After 18 hours, proinflammatory cytokine levels in the supernatant were assessed by multiplex cytokine analysis.
as §3, §4

GM-CSF = experiment: LPS-stimulated PBMC cytokine production, multiplex cytokine analysis: GM-CSF; conditions: Homo sapiens, PBMC, PBMC 2×10^6 cells/ml, compound 1 hour, then 1 ng/ml LPS 18 hours
Procedure: as §2

TNF-α = experiment: LPS-stimulated PBMC cytokine production, multiplex cytokine analysis: TNF-α; conditions: Homo sapiens, PBMC, PBMC 2×10^6 cells/ml, compound 1 hour, then 1 ng/ml LPS 18 hours
Procedure: as §3, §4, §5

Structure (SMILES) | LPS-induced secretion of IL-6 from PBMCs (IL-6 [1]) | median reduction in IL-6 levels relative to DMSO control (IL-6 [2]; 1 nM Compound 1 pre-treatment, 10 ng/ml CC-93269, PBMCs from 15 healthy donors) | IL-6 secretion at CC-93269 concentrations up to 10,000 ng/mL, PBMCs + K562-BCMA (IL-6 [2]; Compound 1 pre-treatment) | secretion of IL-6 associated with CC-93269 activity, PBMCs + K562-BCMA (IL-6 [2]) | IC50 (MIP-1β) | IC50 (IL-8) | LPS-induced secretion of proinflammatory cytokines from PBMCs (effect in words) [3] | IC50 (GM-CSF) | IC50 (TNF-α)
N#Cc1ccc(N2CCN(Cc3ccc(COc4cccc5c4CN(C4CCC(=O)NC4=O)C5=O)cc3)CC2)c(F)c1 (stereo not drawn) [Compound 1, 4-(4-(4-(((2-(2,6-dioxopiperidin-3-yl)-1-oxoisoindolin-4-yl)oxy)methyl)benzyl)piperazin-l-yl)-3-fluorobenzonitrile] | reduces | about two-fold | suppresses | diminished/attenuated; also recorded: suppressed |  |  |  |  | 
O=C1CC[C@H](N2Cc3c(OCc4ccc(CN5CCOCC5)cc4)cccc3C2=O)C(=O)N1 [Iberdomide, (S)-3-(4-((4-(morpholinomethyl)benzyl)oxy)-1-oxoisoindolin-2-yl)piperidine-2,6-dione] | reduces |  |  | diminished/attenuated; also recorded: suppressed | > 10 µM | > 10 µM | inhibited | 0.0022 µM | 0.00059 µM
Nc1cccc2c1CN(C1CCC(=O)NC1=O)C2=O (stereo not shown) [Lenalidomide, 3-(4-amino-1-oxo-2,3-dihydro-1H-isoindol-2-yl) piperidine-2,6-dione] | reduces |  |  | diminished/attenuated; also recorded: suppressed | > 10 µM | > 10 µM | inhibited | > 10 µM | 0.22 µM
Nc1cccc2c1C(=O)N(C1CCC(=O)NC1=O)C2=O (stereo not shown) [Pomalidomide, 4-amino-2-(2,6-dioxopiperidine-3-yl)isoindoline-1,3-dione] | reduces |  |  | diminished/attenuated; also recorded: suppressed | > 10 µM | 2.9 µM | inhibited | 1.5 µM | 0.033 µM
